The source of these data is patent US8940313B2, “Tyrosine-based prodrugs of antiviral agents” (priority 2010, dated 2015).

A word on the IC50: it is the concentration at which inhibition is half-maximal. Usually half-life stands for the time needed for the level to fall by half in the phase considered. Lower therefore signals fast loss.

One series relates to herpes simplex 1 (HSV-1). In words: microbe, parasite or virus in culture. Type of series: cell-based.
A further series has as its system KB cells. Kind of series: cells. Type of series: cell-based. The settings on record: read-out: IC50 KB.
The test system of the next series is vaccinia virus. In words: microbe, parasite or virus in culture. Type of series: cell-based. Conditions: read-out: IC50 Vaccinia.
Another series relates to cowpox virus. Kind of series: microbe, parasite or virus in culture. Conditions: read-out: IC50 Cow Pox. Type of series: cell-based.
In series [1] the test system is human cytomegalovirus (HCMV). In words: microbe, parasite or virus in culture. Type of series: cell-based.
The subject of a further series is HFF cells. In words: cells. The settings on record: read-out: IC50 HFF. Type of series: cell-based, human.
The nature of series [2]: Enzymatic stability: hydrolysis in rat intestinal homogenate, pH 6.5, 37° C., LC-MS. Conditions: per diastereoisomer, st = stable; for half-life: rat, intestinal homogenate, pH 6.5, T1/2 Int. Hom.
Where [3] appears, read: Human alphaherpesvirus 1, read-out: IC50 HSV-1.
Where [4] appears, read: Human betaherpesvirus 5, read-out: IC50 HCMV.

“And” between values parts separate entries of the source, which are not always exact repeats. Equal entries are not always repeated. Where two headings read alike, the source gives them in different places.

With `COC(=O)[C@H](N)Cc1ccc(OP2(=O)CO[C@@H](Cn3ccc(N)nc3=O)CO2)cc1` (stereo partly drawn) [Compound 2b, Methyl(2R)-2-amino-3-(4-{[(5S)-5-[(4-amino-2-oxo-2H-pyrimidin-1-yl)-methyl]-2-oxo-1,4,2λ^5-dioxaphosphinan-2-yl]oxy}phenyl)propanoate], the half-maximal inhibitory concentration (IC50) in the series on herpes simplex 1 (HSV-1) (setting [3]) was 35 µM; in the series on KB cells (Homo sapiens, KB, 48 h) it was greater than 100 µM; with vaccinia virus (Orthopoxvirus vaccinia, HFF) it was 25 µM; in the series on cowpox virus (Cowpox virus, HFF), 35 µM; in series [1] (setting [4]) it was 0.2 µM; with HFF cells (Homo sapiens, HFF), greater than 100 µM.
As to `COC(=O)[C@@H](N)Cc1ccc(OP2(=O)CO[C@@H](Cn3cnc4c(N)ncnc43)CO2)cc1` (stereo partly drawn) [Compound 1a, Methyl(2S)-2-amino-3-(4-{[(5S)-5-[(6-amino-9H-purin-9-yl)methyl]-2-oxo-1,4,2λ^5-dioxaphosphinan-2-yl]oxy}phenyl)propanoate], the IC50 is 35 µM with herpes simplex 1 (HSV-1) (setting [3]); greater than 100 µM in the series with KB cells (Homo sapiens, KB, 48 h); 3 µM in the series on vaccinia virus (Orthopoxvirus vaccinia, HFF); 3.5 µM with cowpox virus (Cowpox virus, HFF); 0.45 µM in series [1] (setting [4]); greater than 100 µM in the series with HFF cells (Homo sapiens, HFF).
Turning to `COC(=O)[C@@H](N)Cc1ccc(OP2(=O)CO[C@@H](Cn3ccc(N)nc3=O)CO2)cc1` (stereo partly drawn) [Compound 2a, Methyl-(2S)-2-amino-3-(4-{[(5S)-5-[(4-amino-2-oxo-2H-pyrimidin-1-yl)-methyl]-2-oxo-1,4,2λ^5-dioxaphosphinan-2-yl]oxy}phenyl)propanoate], the IC50 with herpes simplex 1 (HSV-1) (setting [3]) was 25 µM; in the series on KB cells (Homo sapiens, KB, 48 h), greater than 100 µM; in the series with vaccinia virus (Orthopoxvirus vaccinia, HFF), 4 µM; with cowpox virus (Cowpox virus, HFF), 50 µM; in series [1] (setting [4]) it was 0.23 µM; in the series on HFF cells (Homo sapiens, HFF), greater than 100 µM.
As for `COC(=O)[C@H](N)Cc1ccc(OP2(=O)CO[C@@H](Cn3ccc(N)nc3=O)CO2)cc1` (single isomer, unassigned) [2b (S,R)], the “T1/2 Int. Hom.” value in series [2] amounted to 210 min.
Same read-out and setting: the figure for `CC(C)OC(=O)[C@@H](N)Cc1ccc(OP2(=O)CO[C@@H](Cn3ccc(N)nc3=O)CO2)cc1` (stereo partly drawn) [2c (S,S)] is less than 30 min.
On to `Nc1nc(O)c2ncn(COC(CO)CO)c2n1` [DHPG, ganciclovir, reference compound], for which the IC50 in series [1] (setting [4]) is 2.4 µM; in the series on HFF cells (Homo sapiens, HFF) it was greater than 100 µM.
In the case of `CC(C)(C)NC(=O)[C@H](N)Cc1ccc(OP2(=O)CO[C@@H](Cn3ccc(N)nc3=O)CO2)cc1` (stereo partly drawn) [2d (S,S)], the “T1/2 Int. Hom.” value in series [2] amounted to 203 min.
In turn, `COC(=O)[C@@H](N)Cc1ccc(OP2(=O)CO[C@@H](Cn3ccc(N)nc3=O)CO2)cc1` (single isomer, unassigned) [2a (S,R)] had a half-life in series [2] of less than 30 min.
For `Nc1ncnc2c1ncn2C[C@H]1COP(=O)(O)CO1` [Compound 6, cHPMPA, reference compound], the half-inhibitory concentration (IC50) was 30 µM in the series on herpes simplex 1 (HSV-1) (setting [3]); greater than 100 µM with KB cells (Homo sapiens, KB, 48 h); 1 µM in the series on vaccinia virus (Orthopoxvirus vaccinia, HFF); 0.6 µM with cowpox virus (Cowpox virus, HFF); 1.3 µM in series [1] (setting [4]); 100 µM with HFF cells (Homo sapiens, HFF).
As to `COC(=O)[C@@H](N)Cc1ccc(OP2(=O)CO[C@@H](Cn3cnc4c(N)ncnc43)CO2)cc1` (single isomer, unassigned) [1a (S,R)], the half-life in series [2] was less than 28 min.
In the case of `COC(=O)[C@H](Cc1ccc(OP2(=O)CO[C@@H](Cn3cnc4c(N)ncnc43)CO2)cc1)NC(=O)[C@@H](N)C(C)C` (stereo partly drawn) [Compound 1f, Methyl(2S)-2-[(2S)-2-amino-3-methylbutanamido]-3-[4-({(5S)-5-[(6-amino-9H-purin-9-yl)methyl]-2-oxo-1,4,2λ^5-dioxaphosphinan-2-yl}oxy)phenyl]propanoate], the IC50 in the series on herpes simplex 1 (HSV-1) (setting [3]) is 35 µM; with KB cells (Homo sapiens, KB, 48 h) it was greater than 100 µM; in the series with vaccinia virus (Orthopoxvirus vaccinia, HFF) it was 4 µM; with cowpox virus (Cowpox virus, HFF), 8 µM; in series [1] (setting [4]), 0.3 µM; in the series on HFF cells (Homo sapiens, HFF) it was 100 µM.
As for `CC(C)OC(=O)[C@@H](N)Cc1ccc(OP2(=O)CO[C@@H](Cn3ccc(N)nc3=O)CO2)cc1` (stereo partly drawn) [2c (S,R)], the “T1/2 Int. Hom.” value in series [2] was less than 30 min.
Still for that read-out and setting: the value for `COC(=O)[C@@H](N)Cc1ccc(OP2(=O)CO[C@@H](Cn3cnc4c(N)ncnc43)CO2)cc1` (single isomer, unassigned) [1a (S,S)] was less than 28 min.
Consider `CC(C)CNC(=O)[C@@H](N)Cc1ccc(OP2(=O)COC(Cn3cnc4c(N)ncnc43)CO2)cc1` (single isomer, unassigned) [(S,R)-1e], for which the IC50 with KB cells was greater than 100 µM; in the series with vaccinia virus it was 1 µM; in the series with cowpox virus, 2.5 µM; in series [1] (read-out: IC50 HCMV), 0.55 µM. In addition, the “T1/2 Int. Hom.” value in series [2] (listed as 1e (S,R)) is reported as 630 min.
For `CCC(C)[C@H](N)C(=O)N[C@@H](Cc1ccc(OP2(=O)CO[C@@H](Cn3ccc(N)nc3=O)CO2)cc1)C(=O)OC` (stereo partly drawn) [Compound 2f, Methyl(2S)-3-[4-({(5S)-5-[(4-amino-2-oxo-1,2-dihydropyrimidin-1-yl)methyl]-2-oxo-1,4,2λ^5-dioxaphosphinan-2-yl}oxy)phenyl]-2-[(2S)-2-amino-3-ethylbutanamido]propanoate], the IC50 is 15 µM with herpes simplex 1 (HSV-1) (setting [3]); greater than 100 µM in the series on KB cells (Homo sapiens, KB, 48 h); 20 µM with vaccinia virus (Orthopoxvirus vaccinia, HFF); 30 µM in the series with cowpox virus (Cowpox virus, HFF); less than 0.1 µM in series [1] (setting [4]); greater than 100 µM in the series on HFF cells (Homo sapiens, HFF).
In the case of `Nc1ccn(C[C@@H](CO)OCP(=O)(O)O)c(=O)n1` [Compound 2, (S)-HPMPC, reference compound], the IC50 with vaccinia virus (Orthopoxvirus vaccinia, HFF) is 20 µM; in the series on vaccinia virus, 15 µM; with cowpox virus (Cowpox virus, HFF), 30 µM; in the series with cowpox virus, 15 µM and 20 µM; in series [1] (setting [4]) it was 0.28 µM; in the series on HFF cells (Homo sapiens, HFF), 100 µM.
`Nc1nc2c(ncn2COCCO)c(=O)[nH]1` [ACV, Acyclovir, reference compound]: the IC50 with herpes simplex 1 (HSV-1) (setting [3]) was 0.6 µM; with herpes simplex 1 (HSV-1) (read-out: IC50 HSV-1) it was 0.7 µM.
In series [2], `COC(=O)[C@H](Cc1ccc(OP2(=O)CO[C@@H](Cn3cnc4c(N)ncnc43)CO2)cc1)NC(=O)[C@@H](N)C(C)C` (single isomer, unassigned) [1f (S,R)] yielded a half-life of less than 28 min.
Regarding `CC(C)CNC(=O)[C@@H](N)Cc1ccc(OP2(=O)COC(Cn3cnc4c(N)ncnc43)CO2)cc1` (single isomer, unassigned) [(S,S)-1e], the IC50 in the series on herpes simplex 1 (HSV-1) (read-out: IC50 HSV-1) was 35 µM; in the series with KB cells (Homo sapiens, KB, 48 h), greater than 100 µM; in the series with vaccinia virus (Orthopoxvirus vaccinia, HFF), 1.5 µM; with cowpox virus (Cowpox virus, HFF) it was 2 µM; in series [1] (read-out: IC50 HCMV), 1.3 µM; in the series on HFF cells (Homo sapiens, HFF), greater than 100 µM. Also, the “T1/2 Int. Hom.” value in series [2] (listed as 1e (S,S)) amounted to 114 min.
Regarding `CC(C)(C)NC(=O)[C@H](N)Cc1ccc(OP2(=O)CO[C@@H](Cn3ccc(N)nc3=O)CO2)cc1` (stereo partly drawn) [2d (S,R)], the “T1/2 Int. Hom.” value in series [2] stood at 1732 min.
Regarding `CC(C)CNC(=O)[C@@H](N)Cc1ccc(OP2(=O)COC(Cn3cnc4c(N)ncnc43)CO2)cc1` (stereo partly drawn) [Compound 1e, (2S)-2-Amino-3-[4-({5-[(6-amino-9H-purin-9-yl)methyl]-2-oxo-1,4,2λ^5-dioxaphosphinan-2-yl}oxy)phenyl]-N-(2-methylpropyl)propanamide], the IC50 in the series on herpes simplex 1 (HSV-1) (setting [3]) is 50 µM; with KB cells (Homo sapiens, KB, 48 h), greater than 100 µM; with vaccinia virus (Orthopoxvirus vaccinia, HFF), 4.5 µM; with cowpox virus (Cowpox virus, HFF) it was 7 µM; in series [1] (setting [4]) it was 0.3 µM; in the series on HFF cells (Homo sapiens, HFF) it was greater than 100 µM.
As to `CC(C)OC(=O)[C@@H](N)Cc1ccc(OP2(=O)CO[C@@H](Cn3ccc(N)nc3=O)CO2)cc1` (stereo partly shown) [Compound 2c], the IC50 is 20 µM in the series with herpes simplex 1 (HSV-1) (read-out: IC50 HSV-1); greater than 100 µM in the series on KB cells; 30 µM in the series on vaccinia virus; 40 µM in the series with cowpox virus; 0.12 µM in series [1] (read-out: IC50 HCMV); greater than 100 µM with HFF cells.
